Data set [1] can be described thus: plasma protein binding by ultracentrifugation. Format: in vitro ADME. The conditions noted are these: 37 °C.
Data set [2] is described as follows: plasma exposure in Swiss mice. Format: in vivo, Swiss outbred mice. The conditions noted are these: oral 10 mg/kg, PEG400 suspension, comparison in words.
The nature of data set [3]: human liver microsomal stability. Format: in vitro ADME. The conditions noted are these: liver microsomes, intrinsic clearance (CLint). (Liver microsomes are vesicles of endoplasmic reticulum, rich in cytochrome P450 enzymes.)
For data set [4], the system named is P. falciparum strain TM90-C2B (chloroquine, mefloquine, pyrimethamine, and atovaquone resistant). Nature of the data set: microbe, parasite or virus in culture. The conditions noted are these: Plasmodium falciparum, TM90, read-out: EC50 (nM) TM90-C2B.
A further data set deals with P. berghei-GFP parasites. It counts as in vivo, Plasmodium berghei. The conditions noted are these: for animals cured: Thompson test, 10 mg/kg, five mice per group.

Experimental findings from PMC4234439 (Journal of Medicinal Chemistry, 2014) are described below.

With `COc1cc2[nH]c(C)c(-c3ccc(Oc4ccc(OC(F)(F)F)cc4)cc3F)c(=O)c2cc1Cl` [Compound 7], the “binding to plasma proteins” value in data set [1] is recorded as greater than 99%. For the same compound, the plasma exposure result in data set [2] was “highest exposure”. By microsomal CLint is commonly meant the rate of metabolic loss divided by the concentration. As to `COc1cc2[nH]c(C)c(-c3cccnc3)c(=O)c2cc1Cl` [Compound 20, 6-Chloro-7-methoxy-2-methyl-3-(pyridin-3-yl)quinolin-4(1H)-one], the microsomal CLint at 1 μM in data set [3] is less than 15 µL/min/mg. `COc1cc2[nH]c(C)c(-c3ccncc3)c(=O)c2cc1Cl` [Compound 21, 6-Chloro-7-methoxy-2-methyl-3-(pyridin-4-yl)quinolin-4(1H)-one] came in with an intrinsic metabolic clearance (microsomal CLint) at 1 μM in data set [3] of less than 15 µL/min/mg. In general, EC50 refers to the concentration that produces a half-maximal response. For the compound `COc1cc2[nH]c(C)c(-c3ccc(N4CCN(C)CC4)nc3)c(=O)c2cc1Cl` [Compound 24, 6-Chloro-7-methoxy-2-methyl-3-(6-(4-methylpiperazin-1-yl)pyridin-3-yl)quinolin-4(1H)-one], the EC50 in data set [4] is no less than 536 nM.

As to `COc1cc2[nH]c(C)c(-c3cc4ccccc4s3)c(=O)c2cc1Cl` [Compound 30, 3-(Benzo[b]thiophen-2-yl)-6-chloro-7-methoxy-2-methylquinolin-4(1H)-one], the EC50 in data set [4] is 24.8 to 138 nM. The compound `COc1cc2[nH]c(C)c(-c3ccc(Oc4ccccc4)cc3)c(=O)c2cc1Cl` [Compound 46, 6-Chloro-7-methoxy-2-methyl-3-(4-phenoxyphenyl)quinolin-4(1H)-one] returned a microsomal CLint at 1 μM in data set [3] of 19 µL/min/mg. Take `COc1cc2[nH]c(C)c(-c3ccc(C(F)(F)F)cc3)c(=O)c2cc1Cl` [Compound 52, 6-Chloro-7-methoxy-2-methyl-3-(4-(trifluoromethyl)phenyl)quinolin-4(1H)-one]: the plasma exposure entry in data set [2] was “substantially lower”.

With `COc1cc2[nH]c(C)c(-c3ccc(Oc4ccc(OC(F)(F)F)cc4)cc3C)c(=O)c2cc1Cl` [Compound 62, 6-Chloro-7-methoxy-2-methyl-3-(2-methyl-4-(4-(trifluoromethoxy)phenoxy)phenyl)-quinolin-4(1H)-one], in the data set with P. berghei-GFP parasites, the animals cured entry is “two out of five”. Regarding `COc1cc2[nH]c(C)c(-c3ccc(-c4ccc(C(F)(F)F)cc4F)nc3)c(=O)c2cc1Cl` [Compound 66, 6-Chloro-3-(6-(2-fluoro-4-(trifluoromethyl)phenyl)pyridin-3-yl)-7-methoxy-2-methylquinolin-4(1H)-one], the plasma exposure entry in data set [2] is recorded as “slightly lower exposure”. `COc1cc2[nH]c(C)c(-c3ccc(-c4ccc(OC(F)(F)F)cc4)nc3)c(=O)c2cc1Cl` [Compound 67, 6-Chloro-7-methoxy-2-methyl-3-(6-(4-(trifluoromethoxy)phenyl)pyridin-3-yl)quinolin-4(1H)-one]: the animals cured entry with P. berghei-GFP parasites is “cured all the mice”. The plasma exposure result in data set [2] was “slightly lower exposure”. For the compound `O=C1C(O)=C([C@H]2CC[C@H](c3ccc(Cl)cc3)CC2)C(=O)c2ccccc21` [atovaquone, reference compound], the “survival” value with P. berghei-GFP parasites (days survived beyond untreated control, 50 mg/kg p.o. days 3–5 PE) amounted to 23 days.
